Experimental data as given in ChEMBL document CHEMBL1201862, “PubChem BioAssay data set” (2004).
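Assay format: 96-well plates, 48-hour exposure. Here, GI50 denotes the concentration required for 50% inhibition of growth.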 Activity calls are given as the source filed them. Cut-off read from the data, not from the text of the source: active = GI50 up to about 1.1 µM and inactive = higher.

Legend:
Test in all cases: DTP human tumour cell line panel, 48 h
[1] = test system: 786-0
[2] = test system: A498
[3] = test system: CAKI-1
[4] = test system: CCRF-CEM
[5] = test system: COLO 205
[6] = test system: HCT-116
[7] = test system: HT-29
[8] = test system: K562
[9] = test system: M14
[10] = test system: MCF7
[11] = test system: MDA-MB-435
[12] = test system: NCI-H23
[13] = test system: OVCAR-5
[14] = test system: RXF 393
[15] = test system: SF-268
[16] = test system: SK-OV-3
[17] = test system: SNB-75
[18] = test system: T47D
[19] = test system: TK-10
[20] = test system: UACC-62

Structure (SMILES) | GI50 [1] | GI50 [2] | GI50 [3] | GI50 [4] | GI50 [5] | GI50 [6] | GI50 [7] | GI50 [8] | GI50 [9] | GI50 [10] | GI50 [11] | GI50 [12] | GI50 [13] | GI50 [14] | GI50 [15] | GI50 [16] | GI50 [17] | GI50 [18] | GI50 [19] | GI50 [20]
CCN1CCC(O)(/C=C/c2ccc(C(C)C)cc2)C(C(=O)/C=C/c2ccc(C(C)C)cc2)C1 (stereo unspecified) | 1.71 µM (inactive) | 6.38 µM (inactive) | 4.34 µM (inactive) | 1.16 µM (inactive) | 2.45 µM (inactive) | 1.75 µM (inactive) | 2.24 µM (inactive) | 2.72 µM (inactive) | 3.1 µM (inactive) | 2.46 µM (inactive) | 2.96 µM (inactive) | 2.38 µM (inactive) | 4.34 µM (inactive) | 2.56 µM (inactive) | 1.96 µM (inactive) | 14 µM (inactive) | 4.62 µM (inactive) | 2.35 µM (inactive) | 2.34 µM (inactive) | 4.15 µM (inactive)
C[C@H](NC(=O)C(Cc1ccccc1)(Cc1ccc(O)cn1)NC(=O)c1ccccc1)c1ccccc1 (stereo partly specified) | 16.7 µM (inactive) | 18.1 µM (inactive) | 26.9 µM (inactive) | 30.5 µM (inactive) | 19.1 µM (inactive) | 15.3 µM (inactive) | 17.5 µM (inactive) | 34 µM (inactive) | 15.3 µM (inactive) | 24.2 µM (inactive) | 16.5 µM (inactive) | 22 µM (inactive) | 21.9 µM (inactive) | 14.3 µM (inactive) | 18.2 µM (inactive) |  |  | 18.5 µM (inactive) | 29.9 µM (inactive) | 13.2 µM (inactive)
COc1cc(C2c3cc4c(cc3OC(Nc3ccccc3)C2C)OCO4)cc(OC)c1OC (stereo unspecified) | 0.774 µM (active) | 0.324 µM (active) | 0.555 µM (active) | 0.315 µM (active) | 0.415 µM (active) | 0.42 µM (active) | 0.396 µM (active) | 0.282 µM (active) | 0.381 µM (active) | 0.536 µM (active) | 0.139 µM (active) | 0.991 µM (active) |  | 0.565 µM (active) | 1.91 µM (inactive) | 1.08 µM (active) | 3.08 µM (inactive) | 42.3 µM (inactive) | 23.6 µM (inactive) | 0.621 µM (active)
COc1ccc2oc(=N)c(C(=O)Nc3ccccn3)cc2c1 | > 100 µM (inactive) | > 100 µM (inactive) | > 100 µM (inactive) | > 100 µM (inactive) | > 100 µM (inactive) | > 100 µM (inactive) | > 100 µM (inactive) | > 100 µM (inactive) | > 100 µM (inactive) | 35.1 µM (inactive) | > 100 µM (inactive) | > 100 µM (inactive) | > 100 µM (inactive) | > 100 µM (inactive) | > 100 µM (inactive) | > 100 µM (inactive) | > 100 µM (inactive) | 37 µM (inactive) |  | 71.4 µM (inactive)
CC(=O)OCC1OC(n2c(-c3ccccc3)c(/N=N/c3ccc(C)cc3)c(C)c(C#N)c2=S)C(OC(C)=O)C(OC(C)=O)C1OC(C)=O (stereo unspecified) | 3.55 µM (inactive) | 2.78 µM (inactive) | 22.9 µM (inactive) | 11 µM (inactive) | 23.1 µM (inactive) | 3.26 µM (inactive) | 12.8 µM (inactive) | 5.69 µM (inactive) | 3.16 µM (inactive) | 6.47 µM (inactive) | 9.06 µM (inactive) | 13.4 µM (inactive) | 23.7 µM (inactive) | 16.2 µM (inactive) | 9.04 µM (inactive) |  |  | 59.8 µM (inactive) | 23.6 µM (inactive) | 
Cc1nc(Nc2ccc(F)cc2)c2sc(=S)n(-c3ccc(F)cc3)c2n1 | 10 µM (inactive) | 16 µM (inactive) | 18.3 µM (inactive) |  | 14.5 µM (inactive) | 3.74 µM (inactive) | 6.17 µM (inactive) | 33.2 µM (inactive) | 2.94 µM (inactive) | 5.5 µM (inactive) | 10.8 µM (inactive) | 4.24 µM (inactive) | 17.9 µM (inactive) | 12.6 µM (inactive) | 11 µM (inactive) | 19.4 µM (inactive) | 16.1 µM (inactive) | 5.31 µM (inactive) | 14.5 µM (inactive) | 16.1 µM (inactive)
CC(NC1=NCCO1)c1ccco1 (stereo unspecified) | > 100 µM (inactive) | > 100 µM (inactive) | > 100 µM (inactive) | > 100 µM (inactive) | 79.8 µM (inactive) | > 100 µM (inactive) | 93.8 µM (inactive) | > 100 µM (inactive) | > 100 µM (inactive) | > 100 µM (inactive) | > 100 µM (inactive) | > 100 µM (inactive) | > 100 µM (inactive) | > 100 µM (inactive) | > 100 µM (inactive) | > 100 µM (inactive) |  | > 100 µM (inactive) | > 100 µM (inactive) | > 100 µM (inactive)
